Assay results: patent US20210284742A1, “METHODS OF TREATING OR PREVENTING MUCORMYCOSIS” (University of Maryland, Baltimore, priority 2018, published 2021)

Assays:
[1] = test system: A549 cells infected with R. delemar; experiment: R. delemar-induced A549 cell damage (Pierce LDH assay); assay type: cell-based, human
Method: Measurement of R. delemar-induced host cell damage. R. delemar-induced A549 cell damage was quantified using the Pierce LDH Assay with slight modifications to the manufacturer's protocol. Briefly, A549 cells were grown in 96-well tissue culture plates for 18-24 hours. […] For controls, host cells will be incubated with DMSO (the solvent used to reconstitute the inhibitor) or 25 μg/ml of mouse IgG antibody in parallel. After 24 hours of incubation at 37° C., 50 μl of the cell culture supernatant was collected from uninfected, infected, and fungi-only control wells and transferred to a 96 well plate to assay for LDH activity. Lysis buffer was added to all infected wells and incubated for 45 min at 37° C. After lysis, 50 μl of cell culture supernatant was transferred to a 96 well plate and used for the LDH Assay Kit per protocol. LDH release was calculated as follows: % Cytotoxicity=[Experimental release−Fungal Cells Spontaneous Control−Host Cells Spontaneous Control]/[Host Cell Maximum Control−Fungal Cells Maximum Control−Host Cells Spontaneous Control]×100. LDH is a cytosolic enzyme but will be released into the cell culture medium upon cell membrane damage. The amount of extracellular LDH is proportional to the amount of cell damage.
R. delemar-induced A549 cell damage was quantified using the Pierce LDH assay, with slight modifications to the manufacturer's protocol. Briefly, A549 cells were grown in 96-well tissue culture plates for 18 to 24 h. Cells were then pretreated for 1 h with inhibitor and infected with 1×10^6-2×10^6 germlings suspended in 150 μl F-12K plus 10% FBS. For controls, host cells were incubated with the appropriate amount of diluent used to reconstitute the in parallel. After 24 h of incubation at 37° C., 50 μl of the cell culture supernatant was collected from uninfected, infected, and fungus-only control wells and transferred to a 96-well plate to assay for LDH activity. Lysis buffer was added to all infected wells, and the mixture was incubated for 45 min at 37° C. After lysis, 50 μl of cell culture supernatant was transferred to a 96-well plate and used for the LDH assay kit per the protocol. LDH release was calculated as follows: % cytotoxicity=[(experimental release−fungal cell spontaneous control−host cell spontaneous control)/(host cell maximum control−fungal cell maximum control−host cell spontaneous control)]×100. LDH is a cytosolic enzyme but will be released into the cell culture medium upon cell membrane damage. The amount of extracellular LDH is proportional to the amount of cell damage.

R. delemar [2] = experiment: Growth / germination of R. delemar in the absence of host cells; assay type: cell-based
R. delemar [3] = experiment: Neutropenic mouse model of pulmonary mucormycosis, survival; assay type: in vivo, mice; conditions: for protection from pulmonary mucormycosis (survival): 10 mg/kg for 5 consecutive days starting 4 h post infection; for protection from pulmonary mucormycosis, delayed administration: treatment delayed for 30 h post infection, administered alone
Method: Murine models of Mucormycosis. Male ICR mice (20-25 g from Envigo) were immunosuppresed by cyclophosphamide (200 mg/kg administered intraperotenually [i.p]) and cortisone acetate (500 mg/kg, adminstered subcutaneously) given on days −2, +3, and +9 relative to infection. […] To control for bacterial infection, immunosuppressed mice received 50 mg/L Baytrial (enrofloxacin: Bayer, Leverkusen, Germany) ad libitum on Day −3 thorough Day 0, after which Baytril was replaced with daily ceftazidime (5 mg/mouse) treatment adminstered subcutaneously through day+13 days post infection. Mice were infected with 2.5×10^5 spores of R. delemar 99-880 in 25 μL PBS given intratracheally as previously described (Luo G, Gebremariam T, Lee H, French S W, Wiederhold N P, Patterson T F, Filler S G, Ibrahim A S. 2013. Efficacy of liposomal amphotericin B and posaconazole in intratracheal models of murine mucormycosis. Antimicrobial agents and chemotherapy 57:3340-7). […] Placebo mice received DMA:PEG300. Survival of mice served as the primary endpoint with moribund mice humanely euthanized. To determine effect of treatment on tissue fungal burden mice were immunosuppressed and infected as above. Gefitinib treatment started 4 post infection and continued through Day +3. On Day +4, mice were sacrificed and lungs and brains, representing primary and secondary target organs (Luo G, Gebremariam T, Lee H, French S W, Wiederhold N P, Patterson T F, Filler S G, Ibrahim A S. 2013. Efficacy of liposomal amphotericin B and posaconazole in intratracheal models of murine mucormycosis. Antimicrobial agents and chemotherapy 57:3340-7), were collected and processed for tissue fungal burden by qPCR (Ibrahim A S, Bowman J C, Avanessian V, Brown K, Spellberg B, Edwards J E, Jr., Douglas C M. 2005. Caspofungin inhibits Rhizopus oryzae 1,3-beta-D-glucan synthase, lowers burden in brain measured by quantitative PCR, and improves survival at a low but not a high dose during murine disseminated zygomycosis. Antimicrobial agents and chemotherapy 49:721-7.) Values are expressed as Log10 spore equivalents per gram tissue.
Statistical Analyses. In vitro experiments were performed in triplicate on two or three separate days. Data were expressed as median±interquartile range. Treatment groups were compared to controls using the Wilcoxon rank-sum test and P values <0.05 were considered significant. For the murine studies, survival of mice was analyzed using the Log Rank test, whereas differences in tissue fungal burden were analyzed by the Wilcoxon Rank Sum test using Graph pad Prism 6. P values of <0.05 were considered significant.

[4] = test system: A549 cells infected with L. corymbifera; experiment: L. corymbifera-induced damage of A549 cells (LDH assay); assay type: cell-based, human; conditions: 25 μM Mifepristone overnight and/or 25 μM Gefitinib 1 h, 24 h infection (FIG. 14)
[5] = test system: A549 cells infected with C. bertholletiae; experiment: C. bertholletiae-induced damage of A549 cells (LDH assay); assay type: cell-based, human; conditions: 25 μM Mifepristone overnight and/or 25 μM Gefitinib 1 h, 24 h infection (FIG. 14)
[6] = test system: other Mucormycosis-causing fungi; experiment: In vitro infection with other mucormycosis-causing fungi (FIG. 23); assay type: cell-based
[7] = neutropenic mice infected intratracheally, 10 mg/kg i.p. for 5 consecutive days starting 4 h post infection

## COc1cc2ncnc(Nc3ccc(F)c(Cl)c3)c2cc1OCCCN1CCOCC1 [Gefitinib]
[1]; A549 cells pretreated 1 h with 25 μM Gefitinib or 25 μg/ml Cetuximab, 24 h infection, vs vehicle or IgG1 control antibody
  R. delemar-induced damage of A549 cells (LDH assay): significantly reduced
[1]; Example 3, Mifepristone 25 / Gefitinib 25, 24 h infection, vs vehicle (FIG. 12)
  R. delemar-induced damage of alveolar epithelial cells (LDH assay): significantly decreased
[1]; spore preparations pre-treated with drug prior to the infection
  host cell damage after pre-treatment of R. delemar spore preparations: did not reduce
R. delemar [2]
  R. delemar mycelial growth: no effect
R. delemar [3]
  protection from pulmonary mucormycosis (survival): protects mice from pulmonary mucormycosis
  protection from pulmonary mucormycosis, delayed administration: protects mice from pulmonary mucormycosis
R. delemar [3]; listed as gefitinib
  protection from pulmonary mucormycosis (survival): protected
  protection from pulmonary mucormycosis, delayed administration: protected mice from pulmonary mucormycosis
R. delemar [3]; delayed treatment beginning 30 h post infection for 6 consecutive days, 10 mg/kg gefitinib, 20 mg/kg posaconazole or both
  18-day survival: ~30%
R. delemar [3]; [7]
  median survival time: > 21 days
  mice survived the infection by Day 21: 55%
[4]
  L. corymbifera-induced damage: significantly decreased
[5]
  C. bertholletiae-induced damage: significantly decreased
[6]
  in vitro infection of other Mucormycosis-causing fungi: Inhibits
